# Experimental data taken from patent US11840686B2, “Modulation of prekallikrein (PKK) expression” (Ionis Pharmaceuticals, Inc., priority 2013, dated 2023).
# Strand notation (5' to 3'): a small letter for the sugar, then the base; units joined by * are phosphorothioate-linked, units joined directly phosphodiester-linked; [ ] holds rarer units or linkages, { } end groups; capitals alone tell only the bases. e = 2'-O-(2-methoxyethyl) (MOE); [5mC] = 5-methylcytosine; d = 2'-deoxy (DNA)
# System: human PKK mRNA
# Experiment: Antisense inhibition of human PKK mRNA in HepaRG cells, 5,000 nM (Example 2)
# Assay type: cell-based
# Conditions: HepaRG cells, electroporation, 5,000 nM antisense oligonucleotide, approx. 24 hours, primer probe set RTS3454, relative to untreated control cells; Table 11
# How it was run: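 qRT-PCR (RTS3454) read-out, RIBOGREEN-normalized; % inhibition vs untreated cells. HepaRG, 20,000 cells/well, electroporation, 5,000 nM ASO, ~24 h.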
row,Substance,% inhibition [%]
1,546353 (antisense e[5mC]*eT*e[5mC]*eA*eG*d[5mC]*dG*dA*d[5mC]*dT*dT*dT*dG*dG*dT*eG*eT*eA*eG*eA) [compound 546353],55
2,546354 (antisense eG*eT*eA*e[5mC]*eT*d[5mC]*dA*dG*d[5mC]*dG*dA*d[5mC]*dT*dT*dT*eG*eG*eT*eG*eT) [compound 546354],47
3,546356 (antisense eT*e[5mC]*e[5mC]*eA*eG*dT*d[5mC]*d[5mC]*dA*dT*dG*dT*dA*d[5mC]*dT*e[5mC]*eA*eG*e[5mC]*eG) [compound 546356],60
4,546357 (antisense eG*e[5mC]*eT*eT*eT*dT*d[5mC]*d[5mC]*dA*dT*d[5mC]*dA*d[5mC]*dT*dG*e[5mC]*eT*e[5mC]*eT*eG) [compound 546357],79
5,546359 (antisense eG*e[5mC]*eA*eT*e[5mC]*dT*dG*dA*dG*d[5mC]*dT*dT*dT*dT*d[5mC]*e[5mC]*eA*eT*e[5mC]*eA) [compound 546359],79
6,546360 (antisense eA*e[5mC]*eT*eG*e[5mC]*dA*dT*d[5mC]*dT*dG*dA*dG*d[5mC]*dT*dT*eT*eT*e[5mC]*e[5mC]*eA) [compound 546360],13
7,546362 (antisense eT*e[5mC]*eA*eT*eG*d[5mC]*dT*dG*dG*dT*dG*dA*d[5mC]*dT*dG*e[5mC]*eA*eT*e[5mC]*eT) [compound 546362],71
8,546363 (antisense e[5mC]*eT*eT*e[5mC]*eT*d[5mC]*dA*dT*dG*d[5mC]*dT*dG*dG*dT*dG*eA*e[5mC]*eT*eG*e[5mC]) [compound 546363],81
9,546364 (antisense eG*eG*eA*e[5mC]*eT*dG*d[5mC]*dT*dT*d[5mC]*dT*d[5mC]*dA*dT*dG*e[5mC]*eT*eG*eG*eT) [compound 546364],61
10,546365 (antisense eA*eG*eA*e[5mC]*eT*d[5mC]*dT*dG*dG*dA*d[5mC]*dT*dG*d[5mC]*dT*eT*e[5mC]*eT*e[5mC]*eA) [compound 546365],64
11,546366 (antisense eT*eG*e[5mC]*e[5mC]*eT*dA*dG*dA*d[5mC]*dT*d[5mC]*dT*dG*dG*dA*e[5mC]*eT*eG*e[5mC]*eT) [compound 546366],79
12,546367 (antisense eA*eA*eA*eA*eA*dT*dT*dG*d[5mC]*d[5mC]*dT*dA*dG*dA*d[5mC]*eT*e[5mC]*eT*eG*eG) [compound 546367],61
13,546368 (antisense eG*eG*eT*eT*eG*dT*dA*dA*dA*dA*dA*dT*dT*dG*d[5mC]*e[5mC]*eT*eA*eG*eA) [compound 546368],44
14,546369 (antisense e[5mC]*eT*e[5mC]*eA*eG*dG*dT*dT*dG*dT*dA*dA*dA*dA*dA*eT*eT*eG*e[5mC]*e[5mC]) [compound 546369],51
15,546370 (antisense eA*e[5mC]*eT*eT*eG*dA*dA*d[5mC]*dT*d[5mC]*dA*dG*dG*dT*dT*eG*eT*eA*eA*eA) [compound 546370],34
16,546372 (antisense eG*eA*eA*eT*eT*dT*dG*dA*d[5mC]*dT*dT*dG*dA*dA*d[5mC]*eT*e[5mC]*eA*eG*eG) [compound 546372],49
17,546373 (antisense e[5mC]*eT*e[5mC]*eA*eG*dA*dA*dT*dT*dT*dG*dA*d[5mC]*dT*dT*eG*eA*eA*e[5mC]*eT) [compound 546373],59
18,546374 (antisense e[5mC]*e[5mC]*eA*eG*eG*d[5mC]*dT*d[5mC]*dA*dG*dA*dA*dT*dT*dT*eG*eA*e[5mC]*eT*eT) [compound 546374],50
19,546375 (antisense eG*eA*e[5mC]*e[5mC]*e[5mC]*d[5mC]*d[5mC]*d[5mC]*dA*dG*dG*d[5mC]*dT*d[5mC]*dA*eG*eA*eA*eT*eT) [compound 546375],48
20,546378 (antisense eT*eT*eT*eG*e[5mC]*dA*dG*dA*dT*dG*dA*dG*dG*dA*d[5mC]*e[5mC]*e[5mC]*e[5mC]*e[5mC]*e[5mC]) [compound 546378],79
